Experimental data: ChEMBL document CHEMBL4840331, “Configurational Assignment of a Flexible Benzo[g]isochromene Stereodiad from Rubia philippinensis and Inhibition of Soluble Epoxide Hydrolase Activity” (J Nat Prod, 2021)

Molecular target: T1, Bifunctional epoxide hydrolase 2 (Homo sapiens, UniProt P34913)
T1 sequence (P34913 whole entry): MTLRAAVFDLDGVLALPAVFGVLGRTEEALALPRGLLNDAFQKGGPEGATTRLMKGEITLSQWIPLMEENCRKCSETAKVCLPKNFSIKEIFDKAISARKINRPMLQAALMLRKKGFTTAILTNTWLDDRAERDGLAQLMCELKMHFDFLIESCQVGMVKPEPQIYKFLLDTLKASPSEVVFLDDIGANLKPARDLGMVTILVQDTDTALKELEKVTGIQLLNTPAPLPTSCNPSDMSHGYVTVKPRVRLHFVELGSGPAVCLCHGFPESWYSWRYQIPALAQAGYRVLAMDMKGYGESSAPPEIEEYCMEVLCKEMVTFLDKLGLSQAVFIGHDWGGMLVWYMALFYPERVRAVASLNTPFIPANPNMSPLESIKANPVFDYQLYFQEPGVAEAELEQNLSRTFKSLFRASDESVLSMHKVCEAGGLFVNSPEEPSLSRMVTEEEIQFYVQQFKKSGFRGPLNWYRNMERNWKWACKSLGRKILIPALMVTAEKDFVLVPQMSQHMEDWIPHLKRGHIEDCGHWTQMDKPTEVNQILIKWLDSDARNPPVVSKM
Assay: Inhibition of sEH (unknown origin) expressed in baculovirus expression system incubated for 1 hr

For C[C@@H](C(=O)O)[C@H]1Cc2c(c(O)c3ccccc3c2O[C@@H]2O[C@H](CO)[C@@H](O)[C@H](O)[C@H]2O)C(=O)O1, the IC50 was 600 nM.
